Source: US12545695B2, “Compounds for inhibiting neovascularization factors and use thereof” (UNIST (ULSAN NATIONAL INSTITUTE OF SCIENCE AND TECHNOLOGY), priority 2019, dated 2026)

Tests used:
Format in all cases: cell-based
[1] = test system: neovascularization factors; experiment: Expression of neovascularization factors in Muller cells (western blot / PCR RNA level analysis); conditions: MIO-M1, 1% O2 (FIG. 9)
Procedure: Muller cells were treated with gamitrinib and SMX at 3 uM and cultured in a 1% O2 environment for 8 hours, and then total RNA was extracted (Qiagen, total RNA extraction kit). cDNA was synthesized from 1 ug of total RNA (NEB, cDNA synthesis kit). After angiogenic factors were synthesized using PCR, the RNA level was analyzed by agarose electrophoresis.
Muller cells (MIO-M1) were cultured at 37° C. and 5% CO2, and DMEM-low glucose (Sigma) including 10% fetal bovine serum and 1% penicillin & streptomycin was used as the medium. A hypoxic chamber was maintained at 37° C., 5% CO2 and 1% O2. Muller cells (MIO-M1) were seeded in the number of 4×10^5 on a 60-millimeter plate and cultured in 3 ml of the medium for 24 hours. The next day, the cells were treated with SMx, a mitochondrial heat shock protein 90 (TRAP1) inhibitor, and gamitrinib and PU-H71, which are previously developed N-terminal domain inhibitors of hsp90s, according to the concentrations shown in the drawing, and cultured in a hypoxic chamber for 24 hours. Whole cell lysates were made from the cultured cells, electrophoresed, transferred to a PVDF membrane, and then treated with a primary antibody at 4° C. for 18 hours. The next day, the whole cell lysates were treated with a secondary antibody for 1 hour and protein expression was analyzed using a western blotting detection reagent.

TRAP1 = molecular target: T1, TRAP1 (Homo sapiens, UniProt Q12931); experiment: Western blot of TRAP1 client proteins (SIRT3, SDHB) in 22Rv1 cell lines; set-up: dose or concentration left out as unconfirmed; conditions: 22Rv1 cells, 2 hours, normalized with DMSO (FIG. 24)
T1 construct: endogenous in cells; host or cells: 22Rv1
T1 sequence (Q12931 60-704): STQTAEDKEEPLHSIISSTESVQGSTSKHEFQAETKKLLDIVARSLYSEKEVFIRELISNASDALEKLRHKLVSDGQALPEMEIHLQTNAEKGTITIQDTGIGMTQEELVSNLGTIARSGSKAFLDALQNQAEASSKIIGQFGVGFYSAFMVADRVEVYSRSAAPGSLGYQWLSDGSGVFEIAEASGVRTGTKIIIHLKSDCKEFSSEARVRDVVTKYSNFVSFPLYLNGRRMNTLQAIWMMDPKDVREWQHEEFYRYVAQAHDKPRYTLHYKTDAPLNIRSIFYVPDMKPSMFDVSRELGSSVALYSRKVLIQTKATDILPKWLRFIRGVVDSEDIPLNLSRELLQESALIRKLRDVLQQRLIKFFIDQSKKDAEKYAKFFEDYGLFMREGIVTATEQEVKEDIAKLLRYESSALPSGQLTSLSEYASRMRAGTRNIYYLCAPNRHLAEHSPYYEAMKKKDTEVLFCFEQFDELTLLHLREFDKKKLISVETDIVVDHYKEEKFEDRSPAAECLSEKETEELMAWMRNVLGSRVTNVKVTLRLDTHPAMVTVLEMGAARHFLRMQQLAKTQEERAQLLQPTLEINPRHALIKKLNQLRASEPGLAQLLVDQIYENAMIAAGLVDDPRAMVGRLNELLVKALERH
Procedure: 22Rv1 cell lines were cultured at 37° C. and 5% CO2, and DMEM-low glucose (Sigma) including 10% fetal bovine serum and 1% penicillin & streptomycin was used as the medium.
22Rv1 cell lines were eeded in the number of 5×10^5 on a 60-millimeter plate, and cultured in 3 ml of medium for 24 hours. The next day, the cells were treated with […] SMx and SM-series (SB-U005, SB-U009, SB-U011, SB-U012), mitochondrial heat shock protein 90 (TRAP1) and cultured for 2 hours. Whole cell lysates were made from the cultured cells, electrophoresed, transferred to a PVDF membrane, and then treated with a primary antibody at 4° C. for 18 hours. The next day, the whole cell lysates were treated with a secondary antibody for 1 hour and protein expression was analyzed using a western blotting detection reagent (FIG. 24).
The cultured cells were treated with the SMx molecule and novel compound molecules SB-U005, SB-U009, SB-U011, and SB-U012 synthesized in Example 6 as drugs, and the treatment results were normalized with DMSO.

HIF1-α = experiment: Drug activity in MIO-M1-HRE/GFP cell line under hypoxia (GFP fluorescence); conditions: 1% O2, 24 hours (FIG. 25)
Procedure: After MIO-M1 Muller cells were transfected with a 5HRE/GFP plasmid (Addgene #46926) (jetPrime kit), plasmid-transfected cells were selected using 1 mg/ml G418 (neomycin) which is a selection marker. A stable cell line was manufactured by selecting cells that were growing in the form of a colony from single cells. The manufactured stable MIO-M1-HRE/GFP cell line was aliquoted into 96 wells and treated with a drug at each concentration the next day. After the cell line was exposed to a hypoxic environment (1% O2) for 24 hours, GFP (Ex/Em: 488/507) fluorescence signals were measured by a SYNERGY NEO microplate reader (BioTek Instrument). As a negative control, DMSO, which is a solvent in which a drug was dissolved, was used, and calculation was performed based on the negative control as 100%.

- concentrations of the client proteins (SIRT3, SDHB) (TRAP1): significantly decreased
SMILES: COC1=C(OC)C(=O)C(CCCCCCCCCC[P+](c2ccccc2)(c2ccccc2)c2ccccc2)=C(C)C1=O [SMx]
- expression of well-known neovascularization factors [1]: suppressed
- suppression of neovascularization factor HIF1-α (HRE/GFP signal) (HIF1-α): suppressed
